Experimental data from patent US20240173329A1, “BELVARAFENIB FOR USE IN TREATMENT OF BRAIN CANCERS” (Genentech, Inc., priority 2021, published 2024).

Columns and labels:
EPHA8 = biological target: T1, EPHA8 (Homo sapiens, UniProt P29322); test: panel of 189 kinase assays; assay type: biochemical
T1 sequence (P29322 28-1005): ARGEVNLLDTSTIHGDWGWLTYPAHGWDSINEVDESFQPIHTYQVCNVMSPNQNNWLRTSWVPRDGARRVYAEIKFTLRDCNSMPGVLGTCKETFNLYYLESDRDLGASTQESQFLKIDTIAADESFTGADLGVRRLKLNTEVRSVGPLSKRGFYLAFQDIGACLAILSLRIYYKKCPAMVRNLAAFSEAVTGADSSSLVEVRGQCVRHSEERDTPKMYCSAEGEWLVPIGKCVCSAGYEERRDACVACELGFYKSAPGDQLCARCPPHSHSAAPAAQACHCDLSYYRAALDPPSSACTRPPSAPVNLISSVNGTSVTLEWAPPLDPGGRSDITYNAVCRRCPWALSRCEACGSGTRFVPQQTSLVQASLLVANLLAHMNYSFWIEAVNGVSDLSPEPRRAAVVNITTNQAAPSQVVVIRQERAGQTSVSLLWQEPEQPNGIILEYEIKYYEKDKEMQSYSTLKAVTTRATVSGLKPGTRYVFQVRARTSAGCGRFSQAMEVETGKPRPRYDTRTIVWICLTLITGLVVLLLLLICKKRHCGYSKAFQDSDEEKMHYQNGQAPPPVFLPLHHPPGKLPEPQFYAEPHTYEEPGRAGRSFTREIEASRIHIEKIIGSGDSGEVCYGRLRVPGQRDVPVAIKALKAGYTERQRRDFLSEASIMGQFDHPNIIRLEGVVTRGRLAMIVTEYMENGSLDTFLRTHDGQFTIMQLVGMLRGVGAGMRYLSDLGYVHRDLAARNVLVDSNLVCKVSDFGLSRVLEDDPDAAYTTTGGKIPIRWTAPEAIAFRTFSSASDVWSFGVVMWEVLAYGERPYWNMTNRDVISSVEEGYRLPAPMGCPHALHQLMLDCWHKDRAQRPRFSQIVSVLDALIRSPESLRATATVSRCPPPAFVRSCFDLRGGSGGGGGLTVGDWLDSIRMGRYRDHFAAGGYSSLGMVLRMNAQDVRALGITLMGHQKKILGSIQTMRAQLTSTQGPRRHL

[1] = biological target: colony stimulating factor 1 receptor (CSF1R) (Homo sapiens, UniProt P07333); test: panel of 189 kinase assays; assay type: biochemical
colony stimulating factor 1 receptor (CSF1R), sequence (P07333 20-972, species assumed): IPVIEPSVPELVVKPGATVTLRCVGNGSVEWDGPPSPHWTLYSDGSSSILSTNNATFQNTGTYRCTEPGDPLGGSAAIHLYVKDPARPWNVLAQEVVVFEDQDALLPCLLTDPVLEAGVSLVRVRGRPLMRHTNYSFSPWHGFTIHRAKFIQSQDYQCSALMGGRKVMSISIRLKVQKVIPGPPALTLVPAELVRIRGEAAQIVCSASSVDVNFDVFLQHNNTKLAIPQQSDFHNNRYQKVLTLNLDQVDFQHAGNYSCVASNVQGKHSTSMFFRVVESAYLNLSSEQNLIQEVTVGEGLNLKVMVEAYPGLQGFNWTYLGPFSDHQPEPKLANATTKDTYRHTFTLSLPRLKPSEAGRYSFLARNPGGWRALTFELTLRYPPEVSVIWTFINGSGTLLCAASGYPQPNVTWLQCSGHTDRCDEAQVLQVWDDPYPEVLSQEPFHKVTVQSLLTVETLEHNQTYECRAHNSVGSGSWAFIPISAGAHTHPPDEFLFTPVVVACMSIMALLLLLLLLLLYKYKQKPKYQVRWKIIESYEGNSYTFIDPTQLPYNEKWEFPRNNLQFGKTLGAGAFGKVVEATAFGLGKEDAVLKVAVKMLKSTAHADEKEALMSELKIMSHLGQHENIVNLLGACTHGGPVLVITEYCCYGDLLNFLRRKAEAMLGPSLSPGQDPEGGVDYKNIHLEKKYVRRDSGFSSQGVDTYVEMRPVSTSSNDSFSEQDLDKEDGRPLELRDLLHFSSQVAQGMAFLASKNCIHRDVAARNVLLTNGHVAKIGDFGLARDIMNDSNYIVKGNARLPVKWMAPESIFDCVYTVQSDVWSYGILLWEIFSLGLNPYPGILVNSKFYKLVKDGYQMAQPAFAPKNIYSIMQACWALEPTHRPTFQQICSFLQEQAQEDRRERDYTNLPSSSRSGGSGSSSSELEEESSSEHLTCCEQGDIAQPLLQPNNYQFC

[2] = system: A375SM-Luc cells harboring the BRAF^V600 mutation; test: A375SM_Luc cell brain metastasis mouse model; assay type: in vivo; conditions: for mOS (median overall survival): vehicle 24.5 days; for day from which clinical signs of debility due to tumor growth occurred: vehicle after day 11
Method: The mouse strain was BALB/c Nude (nu/nu) produced and supplied by Orient Bio Inc., Korea.
The mice were kept in conventional animal lab cages for at least one week for acclimation before the start of the experiment. The cages were polysulfone 1291H (W425×D266×H185 mm, Techniplast, Italy). Eight mice were housed in each cage at a temperature of 22±2° C., a relative humidity of 50±20%, a ventilation frequency of 10-15 times/h, a 12 hour light/dark cycle, a light intensity of 150-300 Lux, at least weekly cage replacement. The mice were fed ad libitum Picolab Rodent diet (5053, Lab Diet, USA). Tap water was given ad libitum following UV irradiation and filtration.
The cancer cell line was A375SM-Luc harboring the BRAF^V600 mutation. That cell line was deemed suitable for the efficacy study of RAF inhibitors against BRAF^V600 in melanoma.
The A375SM-Luc cell line was established as follows. A375SM cells were seeded into 24 well clear flat-bottomed plates with 2.5×10^5 cells/well in MEM medium (Gibco, USA) supplemented with 10% FBS (Gibco, USA). The next day, CMV-Firefly luciferase lentivirus (Cellomics Inc., USA) was diluted in complete medium containing 8 μg/mL polybrene (Sigma Aldrich, St. Louis MO, USA). Cells were centrifuged in the prepared medium for 90 minutes at 800×g, followed by incubation in fresh medium for 2 to 3 days. Stable clones were selected using puromycin, and individual clones were screened for luciferase activity be measuring their light emission with the IVIS® Lumina Series III In Vivo Imaging System (PerkinElmer Inc., USA) after adding 10 μL (15 mg/mL) D-Luciferin (Gold Biotechnology, USA). The in vitro media was MEM 10% FBS. The in vitro culture condition was incubation at 5% CO2 at 37° C.
The in vivo cell inoculation was as follows. Mice were anesthetized by intraperitoneal (i.p.) injection of 30 mg/kg Zoletil 50 (Virbac, France) and 10 mg/kg Rompun (Bayer Korea, Korea). Five thousand cells suspended in 10 μL phosphate buffered saline were intracranially injected into the right frontal hemisphere (AP+2.0, ML−1.0, DV+2.0 from the bregma) using a stereotactic fixation device (David Kopf Instruments, USA). Mouse models were produced over two days.
The mice were randomized by their tumor burden by BLI (8 mice per group) after 6-7 days from inoculation (implantation). The mice were then dosed with belvarafenib dihydrochloride, 99.6% purity, that was stored at room temperature. Dosing was based on active ingredient free base and was corrected for assay and water content. The dosing vehicle was DMSO (5%), cremophore EL (5%), and deionized water (90%). Belvarafenib for dosing was dissolved in the vehicle.
Belvarafenib (in groups 2 and 3) and vehicle (in group 1) were dosed at 10 mL/kg (p.o.) once per day (QD) for a duration of 102 days.
Body weight measurement was performed twice a week during the dosing period. Relative body weight (%) was calculated by: body weight Day X (g)/initial body weight (g)×100 (Day X=body weight measurement day). Tumor burden was measured by bioluminescence imaging (BLI) using a IVIS® Lumina Series III In Vivo Imaging System (PerkinElmer Inc., USA) each week. […] Kaplan-Meier survival curves showing prolonged survival of mice of groups 1 to 3 were plotted from the date of drug administration. The median overall survival rate (mOS) was the amount of time after which 50% of the mice had died and 50% had survived.
The data were expressed as means±standard error of the mean (SEM). Statistical analysis was conducted by GraphPad PRISM® Version 6 (GraphPad Software, USA). […] was conducted to evaluate significant differences between the groups. A p value less than 0.05 was considered statistically significant.
Mice were intraperitoneally injected with 15 mg/mL of D-Luciferin on each of days 1, 5, 12, 19, 26, 33, 40, 47, 54, 61, 68, 75, 82, 89, 96, and 103 and evaluated with BLI imaging with an IVIS® Lumina Series III In Vivo Image System (PerkinElmer Inc., USA).

Cc1ccc2c(Nc3cccc(Cl)c3F)nccc2c1NC(=O)c1csc2c(N)ncnc12 [Belvarafenib, 4-amino-N-(1-((3-chloro-2-fluorophenyl)amino)-6-methylisoquinolin-5-yl)thieno[3,2-d]pyrimidine-7-carboxamide]
inhibition at 1 µM (EPHA8): > 90%
inhibition at 1 µM [1]: > 90%
tumor burden by bioluminescence imaging (BLI) ([2]; 5 mg/kg p.o. QD): more effective tumor inhibition than the vehicle
Maximum weight loss ([2]; 5 mg/kg p.o. QD, day 39): 33.0 (day 39) %
mOS (median overall survival) ([2]; 5 mg/kg p.o. QD): 34.5 days
tumor burden by bioluminescence imaging (BLI) ([2]; 15 mg/kg p.o. QD): markedly delayed tumor growth as compared to the vehicle
mOS (median overall survival) ([2]; 15 mg/kg p.o. QD): 70.0 days
day from which clinical signs of debility due to tumor growth occurred ([2]; group 2 (5 mg/kg)): 14 days
day from which clinical signs of debility due to tumor growth occurred ([2]; group 3 (15 mg/kg)): 16 days
day of administration from which hair growth showed ([2]; groups 2 and 3 (5 and 15 mg/kg)): 7 days
